One test addresses T1, human EP2 (PTGER2) (Homo sapiens, UniProt P43116).
T1 construct: Cayman Chemical (Human EP2 Reporter Assay Kit)
Nature of the test: EP2 antagonist assay (HEK-293 CNG membrane potential cAMP assay / 293T SEAP reporter assay, PGE2-stimulated). In kind it is cell-based. Conditions: EP2 antagonist activity; concentration for 50% inhibition of signal compared to DMSO. The essentials: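 Two formats. In a CRE-SEAP reporter assay, reverse-transfected 293T cells received compound with PGE2 (13 nM final) for 6-8 h, then luminescence was read. In the ACTOne CNG format, HEK-293 cells were preincubated with compound for 15 min at RT, stimulated with 5 nM PGE2 for 30 min, and read by membrane-potential dye fluorescence. IC50 was taken versus DMSO.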

The target of the next test is T2, human EP4 (EP4R) (Homo sapiens, UniProt P35408).
T2 construct: Cayman Chemical (Human EP4 Reporter Assay Kit)
T2 sequence (P35408 whole entry): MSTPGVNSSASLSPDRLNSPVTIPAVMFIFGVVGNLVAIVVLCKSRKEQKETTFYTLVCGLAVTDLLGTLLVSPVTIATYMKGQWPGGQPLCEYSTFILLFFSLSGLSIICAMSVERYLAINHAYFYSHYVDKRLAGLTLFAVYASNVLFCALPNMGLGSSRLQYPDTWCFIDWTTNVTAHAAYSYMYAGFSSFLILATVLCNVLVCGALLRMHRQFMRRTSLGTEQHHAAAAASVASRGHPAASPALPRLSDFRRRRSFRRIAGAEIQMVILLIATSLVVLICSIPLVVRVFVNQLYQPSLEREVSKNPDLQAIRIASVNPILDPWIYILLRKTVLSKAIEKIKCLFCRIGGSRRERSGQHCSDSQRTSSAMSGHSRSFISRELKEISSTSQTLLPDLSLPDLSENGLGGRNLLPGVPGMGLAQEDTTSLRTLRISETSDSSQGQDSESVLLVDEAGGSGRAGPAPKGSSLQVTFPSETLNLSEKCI
Nature of the test: EP4 antagonist assay (HEK-293 CNG membrane potential cAMP assay / 293T SEAP reporter assay, PGE2-stimulated). Conditions: EP4 antagonist activity; concentration for inhibition of signal compared to DMSO. The test is classed as cell-based. An excerpt: 1. The HEK-293 CNG (Cyclic Nucleotide Gated) cell line expressing a modified CNG channel that leads to cell membrane depolarization in response to elevated intracellular cAMP levels, which can be measured using a fluorescent membrane potential dye, was engineered to express human EP2 (PTGER2) or EP4 (EP4R). The resulting cell line ACTOne™ PTGER2 or ACTOne™ EP4R as well as the fluorescent membrane potential dye were purchased from eEnzyme (Gaithersburg, MD, US) and used in this assay. Briefly, cells were plated at 1.2×10^4 cells/well in 20 μL DMEM supplemented with 2% Fetal Bovine Serum (FBS, VWR International), 1x Penicillin/Streptomycin (GenClone), 0.2 μg/mL puromycin (InvivoGen) and 50 μg/mL G418 (InvivoGen) on a 384 well plate (Greiner). The next day, cells were dye-loaded with 20 μL/well of 1x Dye-loading solution (eENZYME) following the manufacturer's instruction. After 2 hours of incubation at room temperature (RT) in the dark, a pre-read was made to obtain the background signals using CLARIOstar plate reader (BMG LABTECH, Germany) with the following filter settings: excitation=530/20 nm, emission=590/20 nm. Next, a serial dilution of compound (plus a DMSO control) were added to the plate (5 μL/well) and the reaction was incubated at RT for 15 min before adding 5 μL of PGE2 to every well for a final concentration of 5 nM. All wells were duplicated. The plate was then further incubated at RT for 30 min prior to a final read with the same machine settings. Background-subtracted signals were used to calculate IC50 values.
2. Human EP2 and EP4 Reporter Assay Kits were purchased from Cayman Chemical (Ann Arbor, MI, USA). The assay was performed following the provided User Manual. Briefly, a reverse transfection was performed by seeding 6.0×10^4 of 293T cells (ATCC) to each well of the provided Strip Plate coated with a proprietary transfection complex containing DNA constructs for expressing human EP2 or EP4 and a cAMP response element regulated secreted alkaline phosphatase (SEAP) reporter, in 200 μL DMEM supplemented with 2% FBS and incubated for 20-24 hours at 37° C. with 5% CO2. After the incubation, the culture medium was carefully removed, and the cells were replenished with 150 μL pre-warmed serum-free medium. PGE2 and test compounds were prepared together at 4x the desired final concentration, and 50 μL was added to each assigned well with the final concentration of 13 nM and 2 nM PGE2 for EP2 and EP4 assay, respectively. After 6-8 hours of incubation, 10 μL media from each well was transferred to corresponding well of a new plate, which was then sealed and incubated at 65° C. for 30 min. The plate was then cooled down to RT and 50 μL SEAP substrate was added to each well. Luminescence signal was measured using a CLARIOstar plate reader.
The IC50 value was determined as the concentration for […] inhibition of signal compared to DMSO (A: IC50≤100 nM; B: IC50 between 100 nM and 1,000 nM; C: IC50≥1,000 nM).
In general terms: Changes in cAMP serve as a functional read-out for many G protein-coupled receptors.

SMILES strings stand for the structures. pIC50: −log10 of the molar value.

T1 sequence (P43116 whole entry): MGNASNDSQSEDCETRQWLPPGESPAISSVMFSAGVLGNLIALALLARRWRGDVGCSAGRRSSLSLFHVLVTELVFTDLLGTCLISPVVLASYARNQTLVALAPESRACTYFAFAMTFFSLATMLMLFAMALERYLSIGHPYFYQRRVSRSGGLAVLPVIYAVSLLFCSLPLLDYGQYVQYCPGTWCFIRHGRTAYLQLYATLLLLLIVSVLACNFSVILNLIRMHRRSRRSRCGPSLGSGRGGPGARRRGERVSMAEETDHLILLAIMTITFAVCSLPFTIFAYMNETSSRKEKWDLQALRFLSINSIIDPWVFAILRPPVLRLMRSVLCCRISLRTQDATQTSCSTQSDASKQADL

A word on the pIC50: it is −log10 of the IC50, conventionally taken in molar units. A lower pIC50 goes with a large IC50. Turning to `O=C(O)c1ccc(CNC(=O)c2cc(-c3ccc(F)cc3)cc3cnn(Cc4ccc(C(F)(F)F)cc4)c23)cc1` [Example 96, 4-((5-(4-fluorophenyl)-1-(4-(trifluoromethyl)benzyl)-1H-indazole-7-carboxamido)methyl)benzoic acid], the figures for the pIC50 at human EP2 (PTGER2) and on human EP4 (EP4R) were more than 7.00 and not below 7.00, respectively.
For `O=C(O)c1ccc(CNC(=O)c2ccc(Nc3ccccc3)c3ccn(Cc4ccc(C(F)(F)F)cc4)c23)cc1` [Example 57, 4-((4-(phenylamino)-1-(4-(trifluoromethyl)benzyl)-1H-indole-7-carboxamido)methyl)benzoic acid], in that order: more than 7.00 and 6.00 to 7.00.
For the compound `C[C@H](NC(=O)c1cc(-c2cc(F)cc(F)c2)cc2cnn(Cc3ccc4ccccc4c3)c12)c1ccc(C(=O)O)cc1` [Example 169, (S)-4-(1-(5-(3,5-difluorophenyl)-1-(naphthalen-2-ylmethyl)-1H-indazole-7-carboxamido)ethyl)benzoic acid], the pIC50 against human EP2 (PTGER2) is more than 7.00; at human EP4 (EP4R) it was not below 7.00.
As to `N#Cc1cccc(-c2cc(C(=O)NCc3ccc(C(=O)O)cc3)c3c(ccn3Cc3ccc(C(F)(F)F)cc3)c2)c1` [Example 7, 4-((5-(3-cyanophenyl)-1-(4-(trifluoromethyl)benzyl)-1H-indole-7-carboxamido)methyl)benzoic acid], the pIC50 was more than 7.00 on human EP2 (PTGER2) and not below 7.00 against human EP4 (EP4R).
For `C[C@H](NC(=O)c1cc(-c2ccc(F)cc2)cc2nnn(Cc3ccc(C(F)(F)F)cc3)c12)c1ccc(C(=O)O)cc1` [Example 180, (S)-4-(1-(5-(4-fluorophenyl)-1-(4-(trifluoromethyl)benzyl)-1H-benzo[d][1,2,3]triazole-7-carboxamido)ethyl)benzoic acid], in that order: more than 7.00 and not below 7.00.
Take `C[C@@H](NC(=O)c1cc(-c2ccccc2)cc2cnn(Cc3cccc(C(F)(F)F)c3)c12)[C@H]1CC[C@H](C(=O)O)CC1` [Example 224, (1R,4r)-4-((R)-1-(5-phenyl-1-(3-(trifluoromethyl)benzyl)-1H-indazole-7-carboxamido)ethyl)cyclohexane-1-carboxylic acid]: the negative-log IC50 (pIC50) on human EP2 (PTGER2) was more than 7.00; on human EP4 (EP4R), not below 7.00.
As for `O=C(O)c1ccc(CNC(=O)c2cc(-c3ccccc3)cc3ccn(Cc4ccc(C(F)(F)F)cc4)c23)cc1` [Example 2, 4-((5-phenyl-1-(4-(trifluoromethyl)benzyl)-1H-indole-7-carboxamido)methyl)benzoic acid], the pIC50 on human EP2 (PTGER2) is more than 7.00; against human EP4 (EP4R), not below 7.00.
For `O=C(O)c1ccc(CNC(=O)c2cc(-c3cc(F)cc(F)c3)cc3ccn(Cc4ccc(-c5ccccc5)cc4)c23)cc1` [Example 149, 4-((1-([1,1′-biphenyl]-4-ylmethyl)-5-(3,5-difluorophenyl)-1H-indole-7-carboxamido)methyl)benzoic acid], in that order: more than 7.00 and not below 7.00.
As for `O=C(O)c1ccc(CNC(=O)c2cc(-c3ccccc3)cc3ccn(Cc4ccc5ccccc5n4)c23)cc1` [Example 141, 4-((5-phenyl-1-(quinolin-2-ylmethyl)-1H-indole-7-carboxamido)methyl)benzoic acid], the values for the pIC50 against human EP2 (PTGER2) and at human EP4 (EP4R) were more than 7.00 and not below 7.00, respectively.
In the same order, the values of `O=C(O)c1ccc(CNC(=O)c2ccc(Nc3ccccc3)c3ccn(Cc4ccc5ccccc5c4)c23)cc1` [Example 156, 4-((1-(naphthalen-2-ylmethyl)-4-(phenylamino)-1H-indole-7-carboxamido)methyl)benzoic acid] are more than 7.00 and not below 7.00.
On to `O=C(NC[C@H]1CC[C@H](C(=O)O)CC1)c1cc(-c2ccccc2)cc2cnn(Cc3cccc(C(F)(F)F)c3)c12` [Example 221, (1r,4r)-4-((5-phenyl-1-(3-(trifluoromethyl)benzyl)-1H-indazole-7-carboxamido)methyl)cyclohexane-1-carboxylic acid], for which the results for the negative logarithm of the IC50 (pIC50) on human EP2 (PTGER2) and against human EP4 (EP4R) were more than 7.00 and not below 7.00, respectively.
Take `O=C(O)c1ccc(CNC(=O)c2cc(-c3ccccc3)cc3cnn(Cc4ccc(C(F)(F)F)cc4)c23)cc1` [Example 97, 4-((5-phenyl-1-(4-(trifluoromethyl)benzyl)-1H-indazole-7-carboxamido)methyl)benzoic acid]: the figures for the pIC50 on human EP2 (PTGER2) and at human EP4 (EP4R) were more than 7.00 and not below 7.00, respectively.
Take `C[C@H](NC(=O)c1cc(-c2ccccc2)cc2cnn(Cc3cccc(C(F)(F)F)c3)c12)c1ccc(C(=O)O)cc1` [Example 135, (S)-4-(1-(5-phenyl-1-(3-(trifluoromethyl)benzyl)-1H-indazole-7-carboxamido)ethyl)benzoic acid]: the pIC50 on human EP2 (PTGER2) is more than 7.00; at human EP4 (EP4R), not below 7.00.
In the case of `C[C@H](NC(=O)c1cc(-c2ccc(F)cc2)cc2cnn(Cc3ccc4ccccc4c3)c12)c1ccc(C(=O)O)cc1` [Example 168, (S)-4-(1-(5-(4-fluorophenyl)-1-(naphthalen-2-ylmethyl)-1H-indazole-7-carboxamido)ethyl)benzoic acid], the figures for the pIC50 on human EP2 (PTGER2) and at human EP4 (EP4R) were more than 7.00 and not below 7.00, respectively.
As to `O=C(O)c1ccc(CNC(=O)c2cc(-c3ccccc3)cc3cnn(Cc4ccc(-c5ccc(F)cc5)cc4)c23)cc1` [Example 184, 4-((1-((4′-fluoro-[1,1′-biphenyl]-4-yl)methyl)-5-phenyl-1H-indazole-7-carboxamido)methyl)benzoic acid], the negative logarithm of the IC50 (pIC50) against human EP2 (PTGER2) was more than 7.00; on human EP4 (EP4R), not below 7.00.
On to `C[C@H](NC(=O)c1cc(-c2ccccc2)cc2cnn(Cc3cccc(C(F)(F)F)c3)c12)[C@H]1CC[C@H](C(=O)O)CC1` [Example 223, (1S,4r)-4-((S)-1-(5-phenyl-1-(3-(trifluoromethyl)benzyl)-1H-indazole-7-carboxamido)ethyl)cyclohexane-1-carboxylic acid], for which the figures for the pIC50 at human EP2 (PTGER2) and against human EP4 (EP4R) were not above 6.00 and not below 7.00, respectively.
Take `O=C(O)c1ccc(CNC(=O)c2cc(-c3ccccc3F)cc3ccn(Cc4ccc(C(F)(F)F)cc4)c23)cc1` [Example 87, 4-((5-(2-fluorophenyl)-1-(4-(trifluoromethyl)benzyl)-1H-indole-7-carboxamido)methyl)benzoic acid]: the results for the pIC50 against human EP2 (PTGER2) and on human EP4 (EP4R) were more than 7.00 and not below 7.00, respectively.
In the same order, the values of `O=C(O)c1ccc(CNC(=O)c2cc(-c3cccnc3)cc3ccn(Cc4ccc(C(F)(F)F)cc4)c23)cc1` [Example 78, 4-((5-(pyridin-3-yl)-1-(4-(trifluoromethyl)benzyl)-1H-indole-7-carboxamido)methyl)benzoic acid] are more than 7.00 and not below 7.00.
For `O=C(O)c1ccc(CNC(=O)c2cc(-c3ccncc3)cc3ccn(Cc4ccc(C(F)(F)F)cc4)c23)cc1` [Example 80, 4-((5-(pyridin-4-yl)-1-(4-(trifluoromethyl)benzyl)-1H-indole-7-carboxamido)methyl)benzoic acid], in that order: more than 7.00 and not below 7.00.
On to `O=C(O)c1ccc(CNC(=O)c2cc(-c3ccccc3)cc3cnn(Cc4ccc5ccccc5c4)c23)cc1` [Example 165, 4-((1-(naphthalen-2-ylmethyl)-5-phenyl-1H-indazole-7-carboxamido)methyl)benzoic acid], for which the figures for the pIC50 against human EP2 (PTGER2) and at human EP4 (EP4R) were more than 7.00 and not below 7.00, respectively.
As to `C[C@H](NC(=O)c1cc(-c2cc(F)cc(F)c2)cc2ccn(Cc3ccc(-c4ccccc4)cc3)c12)c1ccc(C(=O)O)cc1` [Example 152, (S)-4-(1-(1-([1,1′-biphenyl]-4-ylmethyl)-5-(3,5-difluorophenyl)-1H-indole-7-carboxamido)ethyl)benzoic acid], the pIC50 at human EP2 (PTGER2) is more than 7.00; against human EP4 (EP4R), not below 7.00.

These data come from US20250179017A1 (GUANGDONG NEWOPP BIOPHARMACEUTICALS CO., LTD., priority 2022, published 2025).
